Source: patent US11279715B2, “Process for removing radioactive isotopes from aqueous fluids by fluorine containing reagents, fluorine containing, water-insoluble salts of the radioactive isotopes, and their use as therapeutic agents” (priority 2016, dated 2022)
Read-outs that look alike come from different tables or passages of the source.

What was measured:
[1] = Solubility of the salts in water and organic solvents; type: physicochemical
[2] = PB therapy, cited from earlier work
[3] = in vivo; cited from earlier work
[4] = Specificity of the anion for Cs^+ in aqueous solution; details: versus other cations
Source text: For [H2NB2(C6F5)6]^− and [(H3O2)B2(C6F5)6]^− the process appears 100% specific for cesium so that cesium is quantitatively and exclusively separated from all other cations in the aqueous solution. Thus, a single and fully selective separation step is necessary only to separate cesium from the other components in the form of the intermediate Cs[L]. In a second step, intermediate Cs[L] is converted into the desired product CsA, allowing recycling of [L].
The interest of the inventors in weakly coordinating anions (WCAs) has led them to synthesize the new cesium salt, Cs[H2NB2(C6F5)6] (2). The inventors realized that (2) is insoluble in water and that it is instantaneously formed by mixing any aqueous solution containing Cs^+ with virtually any source of the [H2NB2(C6F5)]^− anion. The reaction is 100% specific for Cs^+, since only in this case [H2NB2(C6F5)6]^− changes its usual asymmetric conformation to an “inverse C2 symmetric” conformation to form a specific 3D lattice.

[5] = Isolation of Cs[H2NB2(C6F5)6] (2) from neat water containing CsCl
Protocol: [Na(OEt2)3][H2NB2(C6F5)6] (69.6 mg, 0.0541 mmol; FW=1285.4; c≈0.9·10^−4 M) was dissolved in 570 mL of water. CsCl (9.5 mg, 0.0564 mmol; FW=168.4) was added and after brief mixing the clear solution was left unstirred. Soon colorless crystals began to separate. The mixture was left overnight and the precipitate was isolated by filtration; yield of 2 42.1 mg (0.0359 mmol, 66%; FW=1172.9). The aqueous mother liquor was extracted once with 20 mL of CH2Cl2. Evaporation of the solvent gave an additional crop of 20 mg (0.0170 mmol, 32%). Total isolated yield was 62.1 mg (0.053 mmol; 98%). The IR spectra of the isolated solids were identical with that of pure Cs[H2NB2(C6F5)6] (2).

[6] = Isolation of 2 from water containing other metal salts; details: 450 mL water with CsCl 5·10^−5 mol/L plus KCl, PbCl2, CrCl3, CaCl2, FeCl3; reagent c≈4.75·10^−5 M
Protocol: To a water solution (450 mL), containing the inorganic salts listed below, was added [Na(OEt2)3][H2NB2(C6F5)6] (27.5 mg, 0.0214 mmol; FW=1285.4; c≈4.75·10^−5 M) and the suspension was stirred overnight. A brown precipitate resulted (color presumably arising from Fe(OH)3) which was filtered off and was washed with dichloromethane to extract 2. The solvent of the extract was evaporated to dryness to leave a colorless residue: yield 19.2 mg of 2 (0.0163 mmol, 76%; FW=1172.9), identified by comparison of the IR spectrum with that of pure 2.
List of Added Inorganic Salts

For `Fc1c(F)c(F)c([B-]([NH2+][B-](c2c(F)c(F)c(F)c(F)c2F)(c2c(F)c(F)c(F)c(F)c2F)c2c(F)c(F)c(F)c(F)c2F)(c2c(F)c(F)c(F)c(F)c2F)c2c(F)c(F)c(F)c(F)c2F)c(F)c1F.[Cs+]` [Compound 2, Cs[H2NB2(C6F5)6]], the “solubility in CH2Cl2, THF, chloroform, Et2O and toluene” value ([1]; CH2Cl2, THF and solvents of low dielectric constant) was “dissolves well”, the “solubility in MeOH” value ([1]; MeOH) was “only limited soluble” and the solubility in alkanes ([1]; alkanes) was “virtually insoluble”. The solubility in water [1] was “virtually insoluble” and the solubility in water ([1]; listed as Cs[H2NB2(C6F5)6]) was “insoluble”.

In the case of `Fc1c(F)c(F)c([B-](c2c(F)c(F)c(F)c(F)c2F)(c2c(F)c(F)c(F)c(F)c2F)c2c(F)c(F)c(F)c(F)c2F)c(F)c1F.[Cs+]` [Compound 7, Cs[B(C6F5)4]], the solubility in water [1] was “insoluble”.

With `Fc1c(F)c(F)c([B-](c2c(F)c(F)c(F)c(F)c2F)(c2c(F)c(F)c(F)c(F)c2F)c2c(F)c(F)c(F)c(F)c2F)c(F)c1F.[Rb+]` [Compound 8, Rb[B(C6F5)4]] the solubility in water [1] was “water insoluble”.

In the case of `Fc1c(F)c(F)c([B-](c2c(F)c(F)c(F)c(F)c2F)(c2c(F)c(F)c(F)c(F)c2F)c2c(F)c(F)c(F)c(F)c2F)c(F)c1F.[Tl+]` [Compound 9, Tl[B(C6F5)4], reference compound], the solubility in water [1] was “water insoluble”.

For `[C-]#N.[C-]#N.[C-]#N.[C-]#N.[C-]#N.[C-]#N.[C-]#N.[C-]#N.[C-]#N.[C-]#N.[C-]#N.[C-]#N.[C-]#N.[C-]#N.[C-]#N.[C-]#N.[C-]#N.[C-]#N.[Fe+2].[Fe+2].[Fe+2].[Fe+3].[Fe+3].[Fe+3].[Fe+3]` [Prussian blue, ferric hexacyanoferrate], the “biological half-life of retention of cesium” value (shortened to “biological half-life”) ([2]; adolescents) is given as ~30 days, the “biological half-life” value ([2]; adults) is given as “approximately 26 days” and the “biological half-life” value ([2]; children) is given as ~24 days. For the same compound, the “absorption by the body via the bowels” value [3] was “not absorbed by the body via the bowels to a noticeable extent”.

`Fc1c(F)c(F)c([B-]([NH2+][B-](c2c(F)c(F)c(F)c(F)c2F)(c2c(F)c(F)c(F)c(F)c2F)c2c(F)c(F)c(F)c(F)c2F)(c2c(F)c(F)c(F)c(F)c2F)c2c(F)c(F)c(F)c(F)c2F)c(F)c1F` [[H2NB2(C6F5)6]^−] showed a specificity for cesium [4] of 100%.

With `CCOCC.CCOCC.CCOCC.Fc1c(F)c(F)c([B-]([NH2+][B-](c2c(F)c(F)c(F)c(F)c2F)(c2c(F)c(F)c(F)c(F)c2F)c2c(F)c(F)c(F)c(F)c2F)(c2c(F)c(F)c(F)c(F)c2F)c2c(F)c(F)c(F)c(F)c2F)c(F)c1F.[Na+]` [[Na(OEt2)3][H2NB2(C6F5)6]] the “yield of 2 precipitated from water” value ([5]; neat water 570 mL, reagent c≈0.9·10^−4 M, overnight, filtration) was 66%, the “total isolated yield of 2” value ([5]; neat water, precipitate plus one CH2Cl2 extraction of the mother liquor) was 98% and the “yield of 2 isolated from water containing other metal salts” value [6] was 76%.

With “Cs[(C6F5)3B(OH2)—(HO)B(C6F5)3] [Compound 5]” the solubility in water [1] was “water insoluble” and the solubility in water ([1]; listed as Cs[H(OH)2B2(C6F5)6]) was “insoluble”.

For [(H3O2)B2(C6F5)6]^−, the specificity for cesium [4] was 100%.
